According to publication PMC6152084, “Synthesis of New Hydrazone Derivatives for MAO Enzymes Inhibitory Activity” (Molecules : A Journal of Synthetic Chemistry and Natural …, 2017):

Legend:
[1] = target: T1, hMAO-B (Homo sapiens, UniProt P27338); test: MAO-B inhibition assay (in vitro fluorometric Amplex Red method); format: biochemical
T1 construct: purchased Sigma-Aldrich (Steinheim, Germany)
T1 sequence (P27338 1-520): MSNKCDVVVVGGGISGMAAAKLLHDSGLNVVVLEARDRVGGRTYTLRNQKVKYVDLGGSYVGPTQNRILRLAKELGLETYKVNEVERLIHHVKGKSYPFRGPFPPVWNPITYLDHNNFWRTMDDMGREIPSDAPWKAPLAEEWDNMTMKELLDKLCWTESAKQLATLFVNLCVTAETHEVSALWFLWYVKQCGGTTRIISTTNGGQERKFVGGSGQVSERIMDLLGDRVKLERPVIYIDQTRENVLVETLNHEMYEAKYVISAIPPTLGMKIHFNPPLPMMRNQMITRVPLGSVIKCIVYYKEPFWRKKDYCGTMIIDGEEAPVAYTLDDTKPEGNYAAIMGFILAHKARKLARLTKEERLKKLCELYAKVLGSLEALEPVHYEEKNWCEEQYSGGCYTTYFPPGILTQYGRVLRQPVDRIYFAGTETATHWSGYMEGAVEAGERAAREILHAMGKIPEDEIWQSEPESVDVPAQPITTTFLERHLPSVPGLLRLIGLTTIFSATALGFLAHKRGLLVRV

[2] = target: T2, hMAO-A (Homo sapiens, UniProt P21397); test: MAO-A inhibition assay (in vitro fluorometric Amplex Red method); format: biochemical
T2 construct: purchased Sigma-Aldrich (Steinheim, Germany)
T2 sequence (P21397 1-527): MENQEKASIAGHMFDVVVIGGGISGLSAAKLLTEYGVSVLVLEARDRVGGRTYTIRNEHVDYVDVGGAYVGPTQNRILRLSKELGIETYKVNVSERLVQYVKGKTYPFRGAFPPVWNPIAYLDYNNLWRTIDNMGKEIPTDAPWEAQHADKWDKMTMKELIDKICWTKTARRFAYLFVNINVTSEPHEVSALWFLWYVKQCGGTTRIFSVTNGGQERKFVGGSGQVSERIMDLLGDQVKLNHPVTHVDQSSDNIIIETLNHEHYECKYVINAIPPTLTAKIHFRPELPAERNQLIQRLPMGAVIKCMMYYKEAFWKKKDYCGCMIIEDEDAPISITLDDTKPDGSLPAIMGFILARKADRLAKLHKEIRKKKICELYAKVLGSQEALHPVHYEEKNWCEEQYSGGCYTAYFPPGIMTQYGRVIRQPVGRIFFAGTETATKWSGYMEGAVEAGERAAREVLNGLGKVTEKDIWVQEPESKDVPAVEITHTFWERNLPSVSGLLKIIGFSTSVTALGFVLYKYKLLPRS

Row | SMILES | inhibition at 1000 µM ([1]; 10^−3 M) [%] | inhibition at 100 µM ([1]; 10^−4 M) [%] | melting point [°C] | inhibition at 1000 µM ([2]; 10^−3 M) [%] | inhibition at 100 µM ([2]; 10^−4 M) [%] | further results
1 | C(=NNc1ccccc1)c1ccc(N2CCN(c3ccccc3)CC2)cc1 [Compound 2c, 1-(4-(4-Phenylpiperazine-1-yl)benzylidene)-2-phenylhydrazine] | 38.5 ± 0.732 | 34.7 ± 0.556 | 149.4 to 160.9 | 70.9 ± 1.06 | 43.2 ± 0.861 | –
2 | COc1ccc(N2CCN(c3ccc(C=NNc4ccccc4)cc3)CC2)cc1 [Compound 2d, 1-(4-(4-(4-Methoxyphenyl)piperazine-1-yl)benzylidene)-2-phenylhydrazine] | 39.2 ± 0.863 | 30.6 ± 0.613 | 141.2 to 150.4 | 68.6 ± 1.5 | 40.2 ± 0.97 | –
3 | COc1ccc(Oc2ccc(C=NNc3ccccc3)cc2)cc1 [Compound 2e, 1-(4-(4-Methoxyphenoxy)benzylidene)-2-phenylhydrazine] | 26.5 ± 0.478 | 19.4 ± 0.327 | 170.9 to 174.9 | 32.5 ± 0.844 | 25 ± 0.425 | –
4 | COc1ccc(Sc2ccc(C=NNc3ccccc3)cc2)cc1 [Compound 2f, 1-(4-((4-Methoxyphenyl)thio)benzylidene)-2-phenylhydrazine] | 33.3 ± 0.833 | 21.9 ± 0.416 | 178.1 to 184.3 | 30.5 ± 0.817 | 26.7 ± 0.748 | –
5 | Fc1ccc(Oc2ccc(C=NNc3ccccc3)cc2)cc1 [Compound 2g, 1-(4-(4-Fluorophenoxy)benzylidene)-2-phenylhydrazine] | 21.7 ± 0.52 | 17.1 ± 0.412 | 121.3 to 124.9 | 54.5 ± 1 | 20.4 ± 0.469 | –
6 | Fc1ccc(Sc2ccc(C=NNc3ccccc3)cc2)cc1 [Compound 2h, 1-(4-((4-Fluorophenyl)thio)benzylidene)-2-phenylhydrazine] | 30.2 ± 0.574 | 24.1 ± 0.355 | 132.3 to 133.9 | 28.6 ± 0.57 | 21 ± 0.548 | –
7 | C(=NNc1ccccc1)c1ccc(-n2ccnc2)cc1 [Compound 2i, 1-(4-(1-Imidazolyl)benzylidene)-2-phenylhydrazine] | 38.2 ± 1.09 | 30.7 ± 0.707 | 201.9 to 208.9 | 40.9 ± 0.9 | 18.3 ± 0.618 | –
8 | C(=NNc1ccccc1)c1ccc(-n2cncn2)cc1 [Compound 2j, 1-(4-(1H-1,2,4-triazole-1-yl)benzylidene)-2-phenylhydrazine] | 27.5 ± 0.633 | 22.1 ± 0.419 | 127.4 to 132.2 | 38.6 ± 0.743 | 33 ± 0.66 | –
9 | Clc1ccc(Sc2ccc(C=NNc3ccccc3)cc2)cc1 [Compound 2k, 1-(4-((4-Chlorophenyl)thio)benzylidene)-2-phenylhydrazine] | 36.3 ± 0.774 | 19 ± 0.825 | 164.4 to 165.7 | 29.2 ± 0.672 | 21.5 ± 0.468 | –
10 | C(=NNc1ccccc1)c1ccc(N2CCC(Cc3ccccc3)CC2)cc1 [Compound 2l, 1-(4-(Benzylpiperidine)benzylidene)-2-phenylhydrazine] | – | – | – | – | – | MAO-B Inhibition % ([1]; 10^−3 M): 45.194 ± 0.692%; MAO-B Inhibition % ([1]; 10^−4 M): 28.560 ± 0.629%; MAO-A Inhibition % ([2]; 10^−3 M): 74.251 ± 1.614%; MAO-A Inhibition % ([2]; 10^−4 M): 44.828 ± 0.917%
11 | CN(C)CCN1CCN(c2ccc(C=NNc3ccccc3)cc2)CC1 [Compound 2m] | – | – | – | – | – | MAO-B Inhibition % ([1]; 10^−3 M): 41.072 ± 0.732%; MAO-B Inhibition % ([1]; 10^−4 M): 27.607 ± 0.961%; MAO-A Inhibition % ([2]; 10^−3 M): 68.276 ± 1.048%; MAO-A Inhibition % ([2]; 10^−4 M): 39.471 ± 0.719%
12 | CN(C)CCCN1CCN(c2ccc(C=NNc3ccccc3)cc2)CC1 [Compound 2n] | – | – | – | – | – | MAO-B Inhibition % ([1]; 10^−3 M): 40.629 ± 0.933%; MAO-B Inhibition % ([1]; 10^−4 M): 29.068 ± 0.734%; MAO-A Inhibition % ([2]; 10^−3 M): 64.435 ± 1.104%; MAO-A Inhibition % ([2]; 10^−4 M): 36.154 ± 0.817%
13 | O=C(NCCN1CCOCC1)c1ccc(Cl)cc1 [Moclobemide, reference compound] | – | – | – | – | 82.1 ± 2.69 | inhibition at 10 µM ([2]; 10^−5 M): 60.5 ± 2.56%; inhibition at 1 µM ([2]; 10^−6 M): 36.2 ± 1.98%; inhibition at 0.1 µM ([2]; 10^−7 M): 22.1 ± 1.34%; inhibition at 0.01 µM ([2]; 10^−8 M): 18.2 ± 0.812%; inhibition at 0.001 µM ([2]; 10^−9 M): 14.1 ± 0.725%
